Laboratory results from PMC5607165, “Synthesis of UDP-apiose in Bacteria: The marine phototroph Geminicoccus roseus and the plant pathogen Xanthomonas pisi” (PLoS ONE, 2017).

T1: XpUAS (Xanthomonas pisi, UniProt A0A291B0F1)
T1 construct: gene XpiCFBP4643_06440
T1 sequence (A0A291B0F1 1-375): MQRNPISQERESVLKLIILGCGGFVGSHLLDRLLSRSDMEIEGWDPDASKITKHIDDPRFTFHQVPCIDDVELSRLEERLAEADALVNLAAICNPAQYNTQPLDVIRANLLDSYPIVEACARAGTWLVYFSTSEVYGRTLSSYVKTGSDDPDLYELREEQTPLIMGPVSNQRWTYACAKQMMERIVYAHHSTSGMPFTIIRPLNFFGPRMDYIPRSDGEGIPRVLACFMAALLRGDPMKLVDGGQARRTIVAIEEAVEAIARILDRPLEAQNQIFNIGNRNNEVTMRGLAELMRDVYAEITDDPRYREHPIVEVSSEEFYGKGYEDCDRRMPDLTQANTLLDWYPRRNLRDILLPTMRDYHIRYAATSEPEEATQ


Tests used:
[1] = molecular target: T2, CeUAS (Candidatus Entotheonella factor, UniProt W4LSK8); experiment: HILIC-ESI-MS/MS and 1H NMR of products; assay type: biochemical; details: 1 mM NAD+, 1 mM UDP-GlcA, 50 mM Tris-HCl pH 7.9, 37 °C; products UDP-apiose and UDP-xylose
T2 construct: gene ETSY1_09345
T2 sequence (W4LSK8 entry or part of it): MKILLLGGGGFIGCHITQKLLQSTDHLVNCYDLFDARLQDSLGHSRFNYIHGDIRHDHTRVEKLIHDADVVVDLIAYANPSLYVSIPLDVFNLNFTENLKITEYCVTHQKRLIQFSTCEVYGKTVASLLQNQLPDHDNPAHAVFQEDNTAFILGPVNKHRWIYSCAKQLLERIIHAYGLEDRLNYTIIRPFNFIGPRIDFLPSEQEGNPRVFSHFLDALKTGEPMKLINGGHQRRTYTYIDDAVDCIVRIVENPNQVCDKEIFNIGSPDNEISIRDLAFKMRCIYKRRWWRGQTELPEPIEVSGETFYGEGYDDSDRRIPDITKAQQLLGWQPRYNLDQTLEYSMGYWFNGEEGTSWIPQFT

[2] = molecular target: T1, XpUAS; experiment: HILIC-ESI-MS/MS and 1H NMR of products; assay type: biochemical; details: 1 mM NAD+, 1 mM UDP-GlcA, 50 mM Tris-HCl pH 7.9, 37 °C; products UDP-apiose and UDP-xylose
[3] = molecular target: GrUAS (Geminicoccus roseus, UniProt A0A291B0F6); experiment: HPLC, UDP-GlcA consumption with additive; assay type: biochemical; details: 1 mM UDP-GlcA, 1 mM NAD+, 50 mM Tris-HCl pH 7.9, 37 °C; additive concentration not given; residual activity versus water
Text: HPLC, UDP-GlcA consumption with additive on GrUAS

[4] = molecular target: Geminicoccus roseus UDP-apiose/UDP-xylose synthase (GrUAS), recombinant His6-tagged (Geminicoccus roseus); experiment: SEC; Superdex75 gel filtration of purified recombinant GrUAS; mass estimated from the elution times of standard protein markers; activity of the fractions determined by HPLC; method as previously described [31]
[5] = substrate: O=C(O)[C@H]1O[C@H](OP(=O)(O)OP(=O)(O)OC[C@H]2O[C@@H](n3ccc(=O)[nH]c3=O)[C@H](O)[C@@H]2O)[C@H](O)[C@@H](O)[C@@H]1O; experiment: HPLC anion exchange, UDP-GlcA depletion; assay type: biochemical, Geminicoccus roseus; details: 1 mM NAD+, 50 mM Tris-HCl pH 7.9, 37 °C, 7 min
Text: HPLC anion exchange, UDP-GlcA depletion on GrUAS

Row | Molecule | Relative activity (%)^a [3] [%] | other results
1 | O=C(O)[C@H]1O[C@H](OP(=O)(O)OP(=O)(O)OC[C@H]2O[C@@H](n3ccc(=O)[nH]c3=O)[C@H](O)[C@@H]2O)[C@H](O)[C@@H](O)[C@@H]1O [UDP-GlcA] |  | HILIC-ESI-MS/MS and 1H NMR of products [1]: Each purified UAS was shown by HILIC-ESI-MS/MS to convert UDP-GlcA to two UDP-pentose products; HILIC-ESI-MS/MS and 1H NMR of products [2]: Each purified UAS was shown by HILIC-ESI-MS/MS to convert UDP-GlcA to two UDP-pentose products
2 | Nc1nc2c(ncn2[C@@H]2O[C@H](COP(=O)(O)O)[C@@H](O)[C@H]2O)c(=O)[nH]1 [GMP] | 94.3 ± 3.7 | 
3 | NC(=O)c1ccc[n+]([C@@H]2O[C@H](COP(=O)(O)OP(=O)(O)OC[C@H]3O[C@@H](n4cnc5c(N)ncnc54)[C@H](OP(=O)(O)O)[C@@H]3O)[C@@H](O)[C@H]2O)c1 [NADP] | 79.6 ± 3.3 | 
4 | Nc1ccn([C@@H]2O[C@H](COP(=O)(O)O)[C@@H](O)[C@H]2O)c(=O)n1 [CMP] | 93.8 ± 4.5 | 
5 | NC(=O)C1=CN([C@@H]2O[C@H](COP(=O)(O)OP(=O)(O)OC[C@H]3O[C@@H](n4cnc5c(N)ncnc54)[C@H](O)[C@@H]3O)[C@@H](O)[C@H]2O)C=CC1 [NADH] | 105.3 ± 1.9 | 
6 | NC(=O)C1=CN([C@@H]2O[C@H](COP(=O)(O)OP(=O)(O)OC[C@H]3O[C@@H](n4cnc5c(N)ncnc54)[C@H](OP(=O)(O)O)[C@@H]3O)[C@@H](O)[C@H]2O)C=CC1 [NADPH] | 82.6 ± 0.9 | 
7 | Nc1nc2c(ncn2[C@@H]2O[C@H](COP(=O)(O)OP(=O)(O)O)[C@@H](O)[C@H]2O)c(=O)[nH]1 [GDP] | 85.2 ± 7.9 | 
8 | Geminicoccus roseus UDP-apiose/UDP-xylose synthase (GrUAS), recombinant His6-tagged (enzyme) |  | stoichiometry N [4]: 2
9 | Nc1ccn([C@@H]2O[C@H](COP(=O)(O)OP(=O)(O)O)[C@@H](O)[C@H]2O)c(=O)n1 [CDP] | 85.3 ± 4.6 | 
10 | GrUAS (Geminicoccus roseus) (protein) MRVVILGCGGFVGSHLLDNLLRDESYLIEGWDPEDRKIRQHLDNPRFTLHRSIANAPEALVEVERAIRECDVVVNLAAICNPADYNTRPLSVIRANLFEVYPIVELCAKYKRWLVSFSTSETYGRTIASYLPAGTYDDPELYELREDETPLIMGPIRNQRWTYACAKQMTERLIYAHHDEEGLPFTIIRPLNFFGPRMDYIPTRDGDGVPRVLACFMAALLSGEPMQLVDGGQARRTIVSIYEAVDAIRRVLERPETSQNQIFNIGNPNNEVTIAELADAMRRTYARITGDARYNDHPIVVTTADAFYGAGYEDCDRRMPDISKAERLLGWVPRMSLAEVLYGTMQSYHDTYTAPKAA |  | Km [5]: 251 ± 44.6 µM; Vmax [5]: 4.22 µM/min

More lines, main results first:

Row | Relative activity (%)^a [3] [%] | Molecule | other results
11 | 88.5 ± 5.6 | O=c1ccn([C@@H]2O[C@H](COP(=O)(O)OP(=O)(O)O[C@H]3OC[C@H](O)[C@H](O)[C@H]3O)[C@@H](O)[C@H]2O)c(=O)[nH]1 [UDP-arabinose] | 
12 | 92.6 ± 5.0 | O=c1ccn([C@@H]2O[C@H](COP(=O)(O)O)[C@@H](O)[C@H]2O)c(=O)[nH]1 [UMP] | 
13 | 87.9 ± 4.9 | Cc1cn([C@H]2C[C@H](O)[C@@H](COP(=O)(O)O)O2)c(=O)[nH]c1=O [TMP] | 
14 | 85.0 ± 4.8 | Cc1cn([C@H]2C[C@H](O)[C@@H](COP(=O)(O)OP(=O)(O)O)O2)c(=O)[nH]c1=O [TDP] | 
15 | 72.6 ± 5.5 | O=c1ccn([C@@H]2O[C@H](COP(=O)(O)OP(=O)(O)O)[C@@H](O)[C@H]2O)c(=O)[nH]1 [UDP] | 
16 | 33.4 ± 9.5 | O=C(O)[C@H]1O[C@H](OP(=O)(O)OP(=O)(O)OC[C@H]2O[C@@H](n3ccc(=O)[nH]c3=O)[C@H](O)[C@@H]2O)[C@H](O)[C@@H](O)[C@H]1O [UDP-galacturonic acid] | 
17 | 91.4 ± 5.6 | O=c1ccn([C@@H]2O[C@H](COP(=O)(O)OP(=O)(O)O[C@H]3OC[C@@H](O)[C@H](O)[C@H]3O)[C@@H](O)[C@H]2O)c(=O)[nH]1 [UDP-xylose] | 
